Numbering of substitutions follows the chain as printed. Where no end group is shown, it is not given here.
Assays:
Experiment in all cases: Homologous whole cell competition binding
Conditions in all cases: homologous competition of 125I-sCT(8-32), whole cells, mean ± S.E.M., SEM
hCTR N288A = biological target: T1, hCTR N288A (Homo sapiens, UniProt P30988, N288A)
T1 construct: expressed in transfected cells
T1 sequence (P30988 25-474 N288A): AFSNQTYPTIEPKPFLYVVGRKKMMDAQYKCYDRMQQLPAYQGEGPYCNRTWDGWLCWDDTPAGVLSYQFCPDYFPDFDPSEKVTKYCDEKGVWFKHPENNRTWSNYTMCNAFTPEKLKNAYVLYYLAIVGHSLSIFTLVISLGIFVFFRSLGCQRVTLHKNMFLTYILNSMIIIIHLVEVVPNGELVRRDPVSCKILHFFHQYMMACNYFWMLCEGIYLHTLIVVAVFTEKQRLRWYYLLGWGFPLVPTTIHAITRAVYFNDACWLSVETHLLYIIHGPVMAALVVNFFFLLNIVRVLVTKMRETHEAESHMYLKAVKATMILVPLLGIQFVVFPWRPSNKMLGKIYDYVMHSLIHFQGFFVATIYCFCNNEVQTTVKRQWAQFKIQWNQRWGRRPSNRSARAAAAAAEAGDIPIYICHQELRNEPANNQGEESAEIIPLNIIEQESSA
Method in brief: (§1)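 Values are pKi, derived from IC50 of unlabelled sCT(8-32) displacing ^125I-sCT(8-32) (25–100 pM) from whole cells after overnight incubation at 4 °C. Specific binding was scaled between tracer-only total and 1 μM cold-peptide background.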

hCTR D373A = biological target: T2, hCTR D373A (Homo sapiens, UniProt P30988, D373A)
T2 construct: c-Myc (N); expressed in transfected cells
T2 sequence (P30988 25-474 D373A): T1 sequence (P30988 25-474 N288A) with A264N, D349A
Method in brief: as §1

hCTR F285A = biological target: T3, hCTR F285A (Homo sapiens, UniProt P30988, F285A)
T3 construct: expressed in transfected cells
T3 sequence (P30988 25-474 F285A): T1 sequence (P30988 25-474 N288A) with F261A, A264N
Method in brief: as §1

hCTR R281A = biological target: T4, hCTR R281A (Homo sapiens, UniProt P30988, R281A)
T4 construct: expressed in transfected cells
T4 sequence (P30988 25-474 R281A): T1 sequence (P30988 25-474 N288A) with R257A, A264N
Method in brief: as §1

VLGKLSQELHKLQTYPRTNTGSGTP-NH2 [sCT(8-32)]
Ki (hCTR N288A): 0.234 nM | Ki (hCTR D373A): 0.525 nM | Ki (hCTR F285A): 0.102 nM | Ki (hCTR R281A): 0.851 nM

Source: PMC5908784, “Extracellular loops 2 and 3 of the calcitonin receptor selectively modify agonist binding and efficacy” (Biochemical Pharmacology, 2018)
